As usually defined, the AC50 is the midpoint of the concentration-response curve, whichever way the signal moves. Higher therefore signals activity only at high concentration.

A value given as a limit tells only on which side of the number the result lay.

The target in experiment [1] is Beta-3 adrenergic receptor (Homo sapiens, UniProt P13945).
The next experiment has as its target T1, B1 bradykinin receptor (Homo sapiens, UniProt P46663).
T1 sequence (P46663 whole entry): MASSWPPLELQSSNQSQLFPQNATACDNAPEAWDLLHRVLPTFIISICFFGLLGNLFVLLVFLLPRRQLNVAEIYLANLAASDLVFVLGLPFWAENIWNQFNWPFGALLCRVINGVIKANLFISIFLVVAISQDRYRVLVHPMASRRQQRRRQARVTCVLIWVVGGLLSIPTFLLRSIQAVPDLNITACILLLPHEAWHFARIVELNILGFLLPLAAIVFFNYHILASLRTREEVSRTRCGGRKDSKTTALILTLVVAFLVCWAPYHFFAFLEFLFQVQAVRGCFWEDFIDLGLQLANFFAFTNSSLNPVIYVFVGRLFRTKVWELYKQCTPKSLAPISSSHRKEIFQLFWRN

Experiment [2] has as its target T2, Corticotropin-releasing factor receptor 1 (Homo sapiens, UniProt P34998).
T2 sequence (P34998 whole entry): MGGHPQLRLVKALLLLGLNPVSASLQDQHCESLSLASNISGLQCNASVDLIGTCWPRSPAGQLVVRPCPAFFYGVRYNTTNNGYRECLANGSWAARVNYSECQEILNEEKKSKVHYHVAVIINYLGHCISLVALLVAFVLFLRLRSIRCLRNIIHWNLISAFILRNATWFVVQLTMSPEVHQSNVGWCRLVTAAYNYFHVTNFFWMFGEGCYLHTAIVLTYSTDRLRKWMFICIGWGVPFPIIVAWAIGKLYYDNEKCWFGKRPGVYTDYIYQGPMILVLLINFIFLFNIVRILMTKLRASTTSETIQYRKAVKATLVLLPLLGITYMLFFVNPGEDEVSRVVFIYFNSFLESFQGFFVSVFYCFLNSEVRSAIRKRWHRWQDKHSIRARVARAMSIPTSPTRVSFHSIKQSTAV

Experiment [3] addresses T3, Corticotropin-releasing factor receptor 2 (Homo sapiens, UniProt Q13324).
T3 sequence (Q13324 whole entry): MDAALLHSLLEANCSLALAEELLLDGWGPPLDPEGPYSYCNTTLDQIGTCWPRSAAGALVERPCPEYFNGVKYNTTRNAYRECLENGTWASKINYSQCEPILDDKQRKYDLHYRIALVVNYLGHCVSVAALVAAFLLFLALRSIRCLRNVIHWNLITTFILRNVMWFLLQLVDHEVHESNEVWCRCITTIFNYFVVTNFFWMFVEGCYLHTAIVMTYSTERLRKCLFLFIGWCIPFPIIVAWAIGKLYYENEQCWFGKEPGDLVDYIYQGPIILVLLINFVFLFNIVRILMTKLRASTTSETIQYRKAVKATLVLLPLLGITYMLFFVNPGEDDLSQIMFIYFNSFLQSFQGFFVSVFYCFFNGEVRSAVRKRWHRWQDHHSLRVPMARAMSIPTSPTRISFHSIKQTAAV

The next experiment has as its target Estrogen receptor beta (Homo sapiens, UniProt Q92731).
A further experiment deals with Histamine H2 receptor (Homo sapiens, UniProt P25021).
The target of experiment [4] is T4, Neuropeptide Y receptor type 2 (Homo sapiens, UniProt P49146).
T4 sequence (P49146 whole entry): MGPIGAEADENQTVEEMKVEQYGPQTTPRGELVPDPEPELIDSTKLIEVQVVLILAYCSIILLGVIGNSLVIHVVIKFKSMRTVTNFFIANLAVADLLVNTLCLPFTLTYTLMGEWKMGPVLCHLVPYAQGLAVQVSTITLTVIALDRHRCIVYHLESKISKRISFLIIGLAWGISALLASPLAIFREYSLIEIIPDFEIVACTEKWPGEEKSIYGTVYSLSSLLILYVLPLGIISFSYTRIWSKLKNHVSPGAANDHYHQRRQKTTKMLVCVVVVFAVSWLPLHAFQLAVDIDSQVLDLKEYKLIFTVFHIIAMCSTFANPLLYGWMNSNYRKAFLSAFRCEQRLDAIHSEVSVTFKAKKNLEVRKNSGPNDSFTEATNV

In experiment [5] the target is Neurotensin receptor type 1 (Homo sapiens, UniProt P30989).
Experiment [6] has as its target T5, Alpha-2A adrenergic receptor (Homo sapiens, UniProt P08913).
T5 sequence (P08913 whole entry): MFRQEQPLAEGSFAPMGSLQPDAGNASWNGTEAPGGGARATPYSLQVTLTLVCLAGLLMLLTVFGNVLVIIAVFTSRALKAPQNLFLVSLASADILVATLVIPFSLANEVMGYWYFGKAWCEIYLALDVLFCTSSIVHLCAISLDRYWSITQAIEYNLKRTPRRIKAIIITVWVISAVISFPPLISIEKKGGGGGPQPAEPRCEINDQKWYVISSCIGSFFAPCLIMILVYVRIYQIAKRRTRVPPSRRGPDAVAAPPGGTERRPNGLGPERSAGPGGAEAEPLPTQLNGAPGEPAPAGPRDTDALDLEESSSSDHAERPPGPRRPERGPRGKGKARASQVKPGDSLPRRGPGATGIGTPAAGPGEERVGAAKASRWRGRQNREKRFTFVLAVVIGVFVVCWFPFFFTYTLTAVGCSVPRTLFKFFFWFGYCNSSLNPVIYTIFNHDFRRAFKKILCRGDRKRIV

For experiment [7], the target named is T6, 5-hydroxytryptamine receptor 1A (Homo sapiens, UniProt P08908).
T6 sequence (P08908 whole entry): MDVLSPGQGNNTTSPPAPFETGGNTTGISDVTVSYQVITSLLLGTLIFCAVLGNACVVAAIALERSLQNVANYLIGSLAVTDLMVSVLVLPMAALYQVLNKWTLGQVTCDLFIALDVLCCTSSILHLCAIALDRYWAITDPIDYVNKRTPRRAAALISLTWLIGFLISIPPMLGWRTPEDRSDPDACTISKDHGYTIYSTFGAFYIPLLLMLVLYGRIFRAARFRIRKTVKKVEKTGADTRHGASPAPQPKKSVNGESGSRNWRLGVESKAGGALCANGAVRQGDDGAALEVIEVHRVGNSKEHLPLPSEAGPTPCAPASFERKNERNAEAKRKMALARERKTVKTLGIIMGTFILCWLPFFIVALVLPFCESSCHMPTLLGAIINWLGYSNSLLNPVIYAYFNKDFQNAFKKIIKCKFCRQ
Note: assay procedure not described here.

Histamine H2 receptor, sequence (P25021 whole entry): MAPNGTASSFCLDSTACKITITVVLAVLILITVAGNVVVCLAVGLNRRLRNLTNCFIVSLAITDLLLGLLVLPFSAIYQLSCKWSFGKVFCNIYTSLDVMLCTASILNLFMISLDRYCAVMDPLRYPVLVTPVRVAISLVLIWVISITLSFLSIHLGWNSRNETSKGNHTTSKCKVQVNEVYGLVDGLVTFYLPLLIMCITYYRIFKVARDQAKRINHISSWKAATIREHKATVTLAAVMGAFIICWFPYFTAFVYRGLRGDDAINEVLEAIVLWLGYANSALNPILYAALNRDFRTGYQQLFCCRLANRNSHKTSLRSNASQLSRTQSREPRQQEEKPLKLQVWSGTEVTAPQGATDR
Beta-3 adrenergic receptor, sequence (P13945 whole entry): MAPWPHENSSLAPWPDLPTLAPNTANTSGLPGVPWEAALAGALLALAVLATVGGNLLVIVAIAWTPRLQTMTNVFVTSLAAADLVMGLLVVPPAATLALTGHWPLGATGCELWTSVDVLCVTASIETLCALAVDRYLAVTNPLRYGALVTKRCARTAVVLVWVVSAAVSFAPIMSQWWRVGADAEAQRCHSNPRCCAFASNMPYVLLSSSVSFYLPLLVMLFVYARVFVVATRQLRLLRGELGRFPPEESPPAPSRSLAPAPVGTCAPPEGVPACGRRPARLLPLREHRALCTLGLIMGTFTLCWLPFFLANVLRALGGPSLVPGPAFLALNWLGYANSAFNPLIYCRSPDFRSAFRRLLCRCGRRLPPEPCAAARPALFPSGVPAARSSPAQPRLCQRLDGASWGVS
Neurotensin receptor type 1, sequence (P30989 whole entry): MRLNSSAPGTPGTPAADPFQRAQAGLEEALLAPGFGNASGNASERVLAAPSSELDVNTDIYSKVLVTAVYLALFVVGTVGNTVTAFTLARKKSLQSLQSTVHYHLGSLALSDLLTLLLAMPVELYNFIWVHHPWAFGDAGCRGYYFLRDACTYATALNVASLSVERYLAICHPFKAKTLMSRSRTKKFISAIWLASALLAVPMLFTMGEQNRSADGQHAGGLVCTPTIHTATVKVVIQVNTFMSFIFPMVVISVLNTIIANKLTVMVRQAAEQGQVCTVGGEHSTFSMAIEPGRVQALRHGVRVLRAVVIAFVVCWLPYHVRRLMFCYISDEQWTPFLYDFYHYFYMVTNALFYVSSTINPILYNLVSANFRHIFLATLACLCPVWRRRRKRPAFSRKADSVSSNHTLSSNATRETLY
Estrogen receptor beta, sequence (Q92731 whole entry): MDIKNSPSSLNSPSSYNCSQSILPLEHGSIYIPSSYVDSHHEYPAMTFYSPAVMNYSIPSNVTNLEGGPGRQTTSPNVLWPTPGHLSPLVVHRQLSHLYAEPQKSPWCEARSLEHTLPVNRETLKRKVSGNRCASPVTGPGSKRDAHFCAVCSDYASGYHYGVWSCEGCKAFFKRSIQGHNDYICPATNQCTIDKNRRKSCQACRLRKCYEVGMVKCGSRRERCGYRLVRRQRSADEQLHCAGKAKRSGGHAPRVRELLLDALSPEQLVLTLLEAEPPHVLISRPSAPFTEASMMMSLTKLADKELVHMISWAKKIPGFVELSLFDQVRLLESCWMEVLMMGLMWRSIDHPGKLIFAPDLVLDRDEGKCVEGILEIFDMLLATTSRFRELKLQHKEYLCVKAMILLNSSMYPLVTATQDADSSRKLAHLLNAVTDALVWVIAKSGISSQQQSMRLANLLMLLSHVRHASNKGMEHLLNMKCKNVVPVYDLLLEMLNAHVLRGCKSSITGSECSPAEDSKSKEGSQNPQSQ

In the case of `CCOC(=O)C1=C(C)NC(C)=C(C(=O)OC)C1c1cccc(Cl)c1Cl` (stereo not given) [FELODIPINE], the AC50 was 10.4 µM in experiment [1]; more than 30 µM on B1 bradykinin receptor; more than 30 µM in [2]; more than 30 µM in experiment [3]; more than 30 µM on Estrogen receptor beta; more than 10 µM at Histamine H2 receptor. Further, the AC50 in experiment [4] was more than 30 µM; in [5], more than 30 µM; in experiment [6], more than 10 µM; in experiment [7] it was more than 10 µM.
As for `CN1C(=O)CN=C(c2ccccc2F)c2cc([N+](=O)[O-])ccc21` [FLUNITRAZEPAM], the AC50 in [1] is more than 30 µM; at B1 bradykinin receptor, more than 30 µM; in [2], more than 30 µM; in [3], more than 30 µM; at Estrogen receptor beta, more than 30 µM; at Histamine H2 receptor, more than 10 µM. Further, the AC50 in experiment [4] was more than 30 µM; in experiment [5], more than 30 µM; in experiment [6], more than 10 µM; in experiment [7], more than 10 µM.
`CN1C2CCCC1CC(NC(=O)c1nn(C)c3ccccc13)C2` (stereo not given) [GRANISETRON]: the AC50 in experiment [1] is more than 30 µM; on B1 bradykinin receptor, more than 30 µM; in experiment [2], more than 30 µM; in experiment [3], more than 30 µM; at Estrogen receptor beta, more than 30 µM; at Histamine H2 receptor, more than 10 µM. Besides, the AC50 in experiment [4] was more than 30 µM; in experiment [5] it was more than 30 µM; in [6], more than 10 µM; in [7], more than 10 µM.
In the case of `COc1ccc2c3c1O[C@H]1C(=O)CC[C@H]4[C@@H](C2)N(C)CC[C@]314` [HYDROCODONE], the AC50 in experiment [1] was more than 30 µM; on B1 bradykinin receptor it was more than 30 µM; in experiment [2] it was more than 30 µM; in experiment [3], more than 30 µM; on Estrogen receptor beta, more than 30 µM; at Histamine H2 receptor, more than 10 µM. For the same molecule, the half-maximal activity concentration (AC50) in experiment [4] is more than 30 µM; in [5], more than 30 µM; in [6], more than 10 µM; in [7], more than 10 µM.

For the origin of these results see ChEMBL document CHEMBL5291721, “A preclinical secondary pharmacology resource illuminates target-adverse drug reaction associations of marketed drugs” (Nat Commun, 2023).
